Reference: ChEMBL document CHEMBL5113383, “Application of the All-Hydrocarbon Stapling Technique in the Design of Membrane-Active Peptides” (J Med Chem, 2022)
Values after ≈ are worked out from the molar mass of the structure shown. Positions of bridges follow the written chain, without caps; N, C: chain ends. Non-standard residues stand in square brackets, D forms with d. Residues, ends and D or L forms follow the SMILES beside them. S5 = C=CCCC[C@](C)(N)C(=O)O; Nle = CCCC[C@H](N)C(=O)O

Legend:
Candida albicans [1] = assay: Antimicrobial activity against Candida albicans SC5314; type: functional
Candida albicans [2] = assay: Antimicrobial activity against Candida albicans 901; type: functional
Candida albicans [3] = assay: Antimicrobial activity against Candida albicans 904; type: functional
Candida tropicalis [4] = assay: Antimicrobial activity against Candida tropicalis ATCC 20026; type: functional
Candida tropicalis [5] = assay: Antimicrobial activity against Candida tropicalis 895; type: functional
Nakaseomyces glabratus [6] = assay: Antimicrobial activity against Candida glabrata ATCC 1182; type: functional
Nakaseomyces glabratus [7] = assay: Antimicrobial activity against Candida glabrata 896; type: functional
[Candida] auris [8] = Antimicrobial activity against Candida auris 918; type: functional; details: Candidozyma auris
[Candida] auris [9] = Antimicrobial activity against Candida auris 919; type: functional; details: Candidozyma auris
Pichia kudriavzevii = assay: Antimicrobial activity against Candida krusei ATCC 2340; type: functional
Candida parapsilosis = assay: Antimicrobial activity against Candida parapsilosis ATCC 22010; type: functional; details: Lodderomyces parapsilosis
[10] = Hemolytic activity in human erythrocytes incubated for 30 mins; type: toxicity, cell-based, Erythrocyte
[11] = Hemolytic activity in human erythrocytes; type: toxicity, cell-based, Erythrocyte
[12] = Hemolytic activity in human erythrocytes incubated for 1 hr; type: toxicity, cell-based, Erythrocyte; details: read-out: Activity

Row | SMILES | MIC (Candida albicans [1]) [µg/mL] | MIC (Candida albicans [2]) [µg/mL] | MIC (Candida albicans [3]) [µg/mL] | MIC (Candida tropicalis [4]) [µg/mL] | MIC (Candida tropicalis [5]) [µg/mL] | MIC (Nakaseomyces glabratus [6]) [µg/mL] | MIC (Nakaseomyces glabratus [7]) [µg/mL] | MIC ([Candida] auris [8]) [µg/mL] | MIC ([Candida] auris [9]) [µg/mL] | MIC (Pichia kudriavzevii) [µg/mL] | MIC (Candida parapsilosis) [µg/mL] | HC50 at 0.5 h [10] [nM] | HC50 [11] [µM] | hemolysis at 1 h [12] [%]
1 | CC[C@H](C)[C@H](NC(=O)[C@H](CCCCN)NC(=O)[C@]1(C)CCC/C=C\CCC[C@](C)(NC(=O)[C@H](CC(C)C)NC(=O)CNC(C)=O)C(=O)N[C@@H](CC(=O)O)C(=O)N[C@@H]([C@@H](C)CC)C(=O)N[C@@H]([C@@H](C)CC)C(=O)N1)C(=O)N[C@@H](C)C(=O)N[C@@H](CCC(=O)O)C(=O)N[C@@H](CO)C(=O)N[C@@H](Cc1ccccc1)C(N)=O (Ac-GL[S5]DII[S5]KIAESF-NH2; staple (Z) 3-7) | > 64 | > 128 | > 128 | > 128 | > 128 | > 128 | > 128 | > 128 | > 128 | > 128 | > 128 |  |  | 
2 | CC(=O)N[C@@H](CCCCN)C(=O)N[C@@]1(C)CCC/C=C\CCC[C@@](C)(C(=O)N[C@@H](CCCCN)C(N)=O)NC(=O)[C@H](CC(C)C)NC(=O)[C@H](CCCCN)NC(=O)[C@H](Cc2c[nH]c3ccccc23)NC1=O (Ac-K[S5]WKL[S5]K-NH2; staple (Z) 2-6) |  |  |  |  |  |  |  |  |  |  |  | < 1000 |  | 
3 | CC(C)C[C@@H]1NC(=O)[C@H](CCCCN)NC(=O)[C@H](Cc2c[nH]c3ccccc23)NC(=O)[C@@](C)(NC(=O)[C@@H](N)CCCCN)CCC/C=C\CCC[C@@](C)(C(=O)N[C@@H](CCCCN)C(N)=O)NC1=O (H-K[S5]WKL[S5]K-NH2; staple (Z) 2-6) |  |  |  |  |  |  |  |  |  |  |  | < 1000 |  | 
4 | CC[C@H](C)[C@H](NC(=O)[C@H](CC(=O)O)NC(=O)[C@H](Cc1ccccc1)NC(=O)[C@H](CC(C)C)NC(=O)CN)C(=O)N[C@H](C(=O)N[C@@H](CCCCN)C(=O)N[C@@]1(C)CCC/C=C\CCC[C@@](C)(C(=O)N[C@@H](Cc2ccccc2)C(N)=O)NC(=O)[C@H](CCC(=O)O)NC(=O)[C@H](C)NC(=O)[C@H]([C@@H](C)CC)NC1=O)[C@@H](C)CC (H-GLFDIIK[S5]IAE[S5]F-NH2; staple (Z) 8-12) | > 64 | > 128 | > 128 | > 128 | > 128 | > 128 | > 128 | > 128 | > 128 | > 128 | > 128 |  |  | 
5 | CC[C@H](C)[C@H](NC(=O)[C@H](CC(=O)O)NC(=O)[C@H](Cc1ccccc1)NC(=O)[C@H](CC(C)C)NC(=O)CN)C(=O)N[C@@]1(C)CCC/C=C\CCC[C@@](C)(C(=O)N[C@@H](CCC(=O)O)C(=O)N[C@@H](CO)C(=O)N[C@@H](Cc2ccccc2)C(N)=O)NC(=O)[C@H]([C@@H](C)CC)NC(=O)[C@H](CCCCN)NC(=O)[C@H](CCCCN)NC1=O (H-GLFDI[S5]KKI[S5]ESF-NH2; staple (Z) 6-10) | > 64 | > 128 | > 128 | > 128 | > 128 | > 128 | > 128 | > 128 | > 128 | > 128 | > 128 |  |  | 
6 | CC[C@H](C)[C@H](NC(=O)[C@H](CCCCN)NC(=O)[C@H](CCCCN)NC(=O)[C@@H](NC(=O)[C@]1(C)CCC/C=C\CCC[C@](C)(NC(C)=O)C(=O)N[C@@H](CC(C)C)C(=O)N[C@@H](Cc2ccccc2)C(=O)N[C@@H](CC(=O)O)C(=O)N1)[C@@H](C)CC)C(=O)N[C@@H](C)C(=O)N[C@@H](CCC(=O)O)C(=O)N[C@@H](CO)C(=O)N[C@@H](Cc1ccccc1)C(N)=O (Ac-[S5]LFD[S5]IKKIAESF-NH2; staple (Z) 1-5) | > 64 | 32 (≈ 20 µM) | > 128 | > 128 | > 128 | > 128 | > 128 | > 128 | > 128 | > 128 | 128 (≈ 79.9 µM) |  |  | 
7 | CC[C@H](C)[C@H](NC(=O)[C@H](CCCCN)NC(=O)[C@H](CCCCN)NC(=O)[C@]1(C)CCC/C=C\CCC[C@](C)(NC(=O)CNC(C)=O)C(=O)N[C@@H](Cc2ccccc2)C(=O)N[C@@H](CC(=O)O)C(=O)N[C@@H]([C@@H](C)CC)C(=O)N1)C(=O)N[C@@H](C)C(=O)N[C@@H](CCC(=O)O)C(=O)N[C@@H](CO)C(=O)N[C@@H](Cc1ccccc1)C(N)=O (Ac-G[S5]FDI[S5]KKIAESF-NH2; staple (Z) 2-6) | > 64 | > 128 | > 128 | > 128 | 16 (≈ 10.4 µM) | > 128 | 128 (≈ 82.8 µM) | > 128 | > 128 | > 128 | > 128 |  |  | 
8 | CC[C@H](C)[C@@H]1NC(=O)[C@@](C)(NC(=O)[C@H](CC(=O)O)NC(=O)[C@H](Cc2ccccc2)NC(=O)[C@H](CC(C)C)NC(=O)CNC(C)=O)CCC/C=C\CCC[C@@](C)(C(=O)N[C@@H](C)C(=O)N[C@@H](CCC(=O)O)C(=O)N[C@@H](CO)C(=O)N[C@@H](Cc2ccccc2)C(N)=O)NC(=O)[C@H](CCCCN)NC(=O)[C@H](CCCCN)NC1=O (Ac-GLFD[S5]IKK[S5]AESF-NH2; staple (Z) 5-9) | 16 (≈ 10.4 µM) | > 128 | > 128 | > 128 | 16 (≈ 10.4 µM) | > 128 | > 128 | > 128 | > 128 | > 128 | > 128 |  |  | 
9 | CC[C@H](C)[C@H](NC(=O)CN)C(=O)N[C@@H](CCSC)C(=O)N[C@@H](CO)C(=O)N[C@@H](CO)C(=O)N[C@@H](CC(C)C)C(=O)N[C@@H](CCSC)C(=O)N[C@@H](CCCCN)C(=O)N[C@@H](CCCCN)C(=O)N[C@@H](CC(C)C)C(=O)N[C@@]1(C)CCC/C=C\CCC[C@@](C)(C(=O)N[C@@H](CCCCN)C(N)=O)NC(=O)[C@H]([C@@H](C)CC)NC(=O)[C@H](Cc2cnc[nH]2)NC(=O)[C@H](C)NC1=O (H-GIMSSLMKKL[S5]AHI[S5]K-NH2; staple (Z) 11-15) |  |  |  |  |  |  |  |  |  |  |  |  | 125 | 
10 | CC[C@H](C)[C@@H]1NC(=O)[C@H]([C@@H](C)CC)NC(=O)[C@@](C)(NC(=O)[C@H](Cc2ccccc2)NC(=O)[C@H](CC(C)C)NC(=O)CN)CCC/C=C\CCC[C@@](C)(C(=O)N[C@H](C(=O)N[C@@H](C)C(=O)N[C@@H](CCC(=O)O)C(=O)N[C@@H](CO)C(=O)N[C@@H](Cc2ccccc2)C(N)=O)[C@@H](C)CC)NC(=O)[C@H](CCCCN)NC1=O (H-GLF[S5]IIK[S5]IAESF-NH2; staple (Z) 4-8) | > 64 | > 128 | > 128 | > 128 | > 128 | > 128 | > 128 | > 128 | > 128 | > 128 | > 128 |  |  | 
11 | CCCC[C@@H]1NC(=O)[C@H](CCCCN)NC(=O)[C@H](Cc2c[nH]c3ccccc23)NC(=O)[C@@](C)(NC(=O)[C@@H](N)CCCCN)CCC/C=C\CCC[C@@](C)(C(=O)N[C@@H](CCCCN)C(N)=O)NC1=O (H-K[S5]WK[Nle][S5]K-NH2; staple (Z) 2-6) |  |  |  |  |  |  |  |  |  |  |  | 3300 |  | 
12 | CC[C@H](C)[C@@H]1NC(=O)[C@H](CCCCN)NC(=O)[C@@](C)(NC(=O)[C@@H](NC(=O)[C@@H](NC(=O)[C@H](CC(=O)O)NC(=O)[C@H](Cc2ccccc2)NC(=O)[C@H](CC(C)C)NC(=O)CN)[C@@H](C)CC)[C@@H](C)CC)CCC/C=C\CCC[C@@](C)(C(=O)N[C@@H](CO)C(=O)N[C@@H](Cc2ccccc2)C(N)=O)NC(=O)[C@H](C)NC1=O (H-GLFDII[S5]KIA[S5]SF-NH2; staple (Z) 7-11) | > 64 | > 128 | > 128 | > 128 | > 128 | > 128 | > 128 | > 128 | > 128 | > 128 | > 128 |  |  | 
13 | CC[C@H](C)[C@H](N)C(=O)N[C@@H](CC(=O)O)C(=O)N[C@@H](Cc1c[nH]c2ccccc12)C(=O)N[C@@H](CCCCN)C(=O)N[C@@H](CCCCN)C(=O)N[C@@]1(C)CCC/C=C\CCC[C@@](C)(C(=O)N[C@@H](CCCCN)C(=O)N[C@@H](CCC(N)=O)C(=O)N[C@H](C(=O)N[C@@H](CC(C)C)C(=O)O)[C@@H](C)CC)NC(=O)[C@H](C)NC(=O)[C@H](CC(=O)O)NC(=O)[C@H](CC(C)C)NC1=O (H-IDWKK[S5]LDA[S5]KQIL-OH; staple (Z) 6-10) |  |  |  |  |  |  |  |  |  |  |  | 12300 |  | 
14 | CC(=O)N[C@@H](CCCCN)C(=O)N[C@@]1(C)CCC/C=C\CCC[C@@](C)(C(=O)N[C@@H](CCCCN)C(N)=O)NC(=O)[C@H](C)NC(=O)[C@H](CCCCN)NC(=O)[C@H](Cc2c[nH]c3ccccc23)NC1=O (Ac-K[S5]WKA[S5]K-NH2; staple (Z) 2-6) |  |  |  |  |  |  |  |  |  |  |  | 1400 |  | 
15 | CC(C)[C@@H]1NC(=O)[C@@](C)(NC(=O)[C@H](C)NC(=O)[C@H](CCCCN)NC(=O)CNC(=O)[C@H](Cc2ccccc2)NC(=O)[C@H](CCCCN)NC(=O)[C@H](CCCCN)NC(=O)[C@H](CCCCN)NC(=O)[C@H](CO)NC(=O)[C@H](Cc2cnc[nH]2)NC(=O)[C@]2(C)CCC/C=C\CCC[C@](C)(NC(=O)CN)C(=O)NCC(=O)N[C@@H](CCCCN)C(=O)N[C@@H](Cc3ccccc3)C(=O)N2)CCC/C=C\CCC[C@@](C)(C(=O)N[C@@H](C)C(=O)N[C@@H](CCCCN)C(=O)N[C@@H](CCCCN)C(N)=O)NC(=O)[C@H](CCC(=O)O)NC(=O)CNC1=O (H-G[S5]GKF[S5]HSKKKFGKA[S5]VGE[S5]AKK-NH2; staple (Z) 2-6, 16-20) |  |  |  |  |  |  |  |  |  |  |  |  | > 400 | < 1
16 | CC[C@H](C)[C@H](NC(=O)[C@H](CC(=O)O)NC(=O)[C@H](Cc1ccccc1)NC(=O)[C@H](CC(C)C)NC(=O)CNC(C)=O)C(=O)N[C@H](C(=O)N[C@@H](CCCCN)C(=O)N[C@@H](CCCCN)C(=O)N[C@@]1(C)CCC/C=C\CCC[C@@](C)(C(N)=O)NC(=O)[C@H](CO)NC(=O)[C@H](CCC(=O)O)NC(=O)[C@H](C)NC1=O)[C@@H](C)CC (Ac-GLFDIIKK[S5]AES[S5]-NH2; staple (Z) 9-13) | > 64 | > 128 | > 128 | > 128 | 32 (≈ 21.2 µM) | > 128 | > 128 | > 128 | > 128 | > 128 | > 128 |  |  | 
17 | OC(Cn1cncn1)(Cn1cncn1)c1ccc(F)cc1F [FLUCONAZOLE] | 0.5 (≈ 1.63 µM) | > 64 | > 64 | 1 (≈ 3.27 µM) | > 128 | 2 (≈ 6.53 µM) | > 128 | > 128 | > 128 | 64 (≈ 209 µM) | 1 (≈ 3.27 µM) |  |  | 
